According to US20130101664A1, “MUC1 LIGAND TRAPS FOR USE IN TREATING CANCERS” (priority 2011, published 2013):

What was measured:
[1] = test system: ZR-75-1 breast carcinoma cells; assay: Cell proliferation by trypan blue exclusion, GO-101 with oxidative stress (H2O2); format: cell-based, human; conditions: 500 nM GO-101 and/or 1 mM H2O2, 3 days, compared to mock conditions
Description: FIG. 8. ZR-75-1 human breast carcinoma cells were treated with 500 nM GO-101 and/or 1 mM H2O2 for 3 days and the cell proliferation was measured by trypan blue exclusion method. The percent proliferation is shown to that compared with control.
To assess the effects of GO-101 on sensitivity of human carcinoma cells to oxidative stress, the inventors treated ZR-75-1 breast carcinoma cells with 500 nM GO-101 in the presence and absence of […]. As a control, cells were also separately treated with hFc (data not shown). Following treatment for 3 days, viable cells were then counted using trypan blue exclusion. […] Importantly, the ZR-75-1 cells exposed to 500 nM GO-101, but not hFc, was associated with ˜42% growth inhibition. However, there was a ˜90% growth inhibition when cells were treated with both H2O2 and GO-101 (FIG. 8).

[2] = test system: ZR-75-1 human breast carcinoma xenograft; format: in vivo; conditions: doxorubicin 6 mg/kg i.v. Q4D×3
Description: ZR-75-1 human breast carcinoma bearing nu/nu mice were dosed with either doxorubicin alone (squares) or in combination with 1 mg/kg GO-101 i.p daily×21 days (circles). Tumors were measured twice a week.
ZR-75-1 Hormone-dependent Breast Carcinoma Xenograft Model: Preliminary 1st TRAP Study in Combination with Doxorubicin (mean tumor volume+SE). ZR-75-1 human breast carcinoma bearing nu/nu mice were dosed with either doxorubicin 6 mg/kg i.v. Q4D×3 (squares) or 1 mg/kg GO-101 i.p daily×21 days+doxorubicin 6 mg/kg i.v. Q4D×3 (circles). Mice were weighed 2-3 times a week and tumor measurements were also performed 2-3 times a week. Points, mean tumor volumes±SE.
GO-101. To avoid freeze/thaw cycles, GO-101 protein (HG-batch GENU001) was prepared as multiple aliquots of frozen solution in PBS into individual treatment doses. The frozen tubes were stored at −80° C. until initiation of dosing. On each day of treatment, the appropriate tubes were allowed to thaw at room temperature. The resulting solution in each tube was clear and colorless with a pH of ˜6.5.
Upon receipt, the clear, red solution was stored at 4° C. protected from light. Dosing solutions were prepared just prior to each treatment by dilution with saline.
About 9-10 weeks old female mice (on the day of treatment) (CRL: NUFoxn1nu) were obtained from Charles River Labs. The mice were fed irradiated Rodent Diet 5053 and water ad libitum. […]

[3] = severe sepsis; decrease from about 31%; cited from earlier work

In the case of OO [H2O2], the “inhibition in cell proliferation / growth inhibition” value [1] is reported as ~66%.
With COc1cccc2c1C(=O)c1c(O)c3c(c(O)c1C2=O)C[C@@](O)(C(=O)CO)C[C@@H]3O[C@H]1C[C@H](N)[C@H](O)[C@H](C)O1 [doxorubicin] the “tumor regressions / tumor free survivors” value [2] was “neither tumor regressions nor tumor free survivors” and the “anti-tumor activity based upon tumor growth delay” value ([2]; p=0.0356) was “significant”.
In the case of drotrecogin alfa, the mortality [3] is given as “about 25%”.
